Patent publication US12478090B2, “Aerosolizable formulation” (NICOVENTURES TRADING LIMITED, priority 2018, dated 2025)
Entries after “also recorded” stand apart in the source; their conditions may differ.

Assays:
[1] = nicotinium citrate gel added in place of nicotine; no heating or filtration steps
[2] = Diffusion-Ordered NMR Spectroscopy (DOSY): diffusion coefficient and residence time within cyclodextrin; format: physicochemical; details: for residency time within 2-hydroxy-propyl-β-cyclodextrin: inferred from DOSY NMR diffusion, Formulations 1 and 2 and spiked ratios 1:4:1 / 1:4:1:1
Method: The interaction between cyclodextrin and menthol and cyclodextrin and nicotine (unprotonated and monoprotonated) was assessed using NMR spectroscopy. The study was conducted on formulations containing
Formulation 1-90.0% (w/w) water, 0.9% (w/w) 1-menthol, 9% (w/w) 2-hydroxy-propyl-β-cyclodextrin, and 0.1% (w/w) nicotine.
Formulation 2-89.9% (w/w) water, 0.9% (w/w) 1-menthol, 9% (w/w) 2-hydroxy-propyl-β-cyclodextrin, 0.1% (w/w) nicotine and 0.1% (w/w) citric acid.
During the NMR studies the assessment of the diffusion coefficient and subsequent residence times of monoprotonated nicotine, unprotonated nicotine, menthol within 2-hydroxy-propyl-β-cyclodextrin. The diffusion coefficient and subsequent residence times were studied as they are understood to provide a qualitative assessment of the degree of interaction of the compound with the complexing agent with each of the components studied. It is understood that encapsulation is not a static state but a dynamic one in which materials are encapsulated (e.g. complexed or bound to an encapsulating agent) for a period of time before release after which they may be subsequently encapsulated. Therefore, decreased residence time indicates decreased interaction with the complexing agent.
Diffusion-Ordered NMR Spectroscopy (DOSY) experiments were selected as suitable for assessment of diffusion times of nicotine and menthol solutions of individual constituents, in the formulation describe above and formulations with spike components to vary the ratios of constituents (nicotine: 2-hydroxy-propyl-β-cyclodextrin:menthol=1:4:1 and nicotine: 2-hydroxy-propyl-β-cyclodextrin:menthol:citric acid=1:4:1:1 molar ratios).

[3] = compared to base cyclodextrins such as β-cyclodextrin; cited from earlier work

With CN1CCCC1c1cccnc1.O=C(O)CC(O)(CC(=O)O)C(=O)O [nicotinium citrate] the “visual precipitate in formulation” value [1] was “lack of any visual precipitate”.

In the case of CN1CCC[C@H]1c1cccnc1 [unprotonated nicotine], the “residency time within 2-hydroxy-propyl-β-cyclodextrin” value [2] is reported as “higher residence within 2-hydroxy-propyl-β-cyclodextrin than mono-protonated nicotine; also recorded: mono-protonated nicotine<unprotonated nicotine<menthol”.

With CC1CCC(C(C)C)C(O)C1 (stereo not drawn) [menthol] the “residency time within 2-hydroxy-propyl-β-cyclodextrin” value [2] was “higher than that of nicotine in both its monoprotonated and unprotonated form; also recorded: mono-protonated nicotine<unprotonated nicotine<menthol”.

With CN1CCC[C@H]1c1cccnc1 [monoprotonated nicotine] the diffusion coefficient ([2]; DOSY NMR, aqueous formulation with menthol and 2-hydroxy-propyl-β-cyclodextrin, with vs without citric acid) was “faster diffusion coefficient compared to the nicotine without citric acid” and the “residency time within 2-hydroxy-propyl-β-cyclodextrin” value ([2]; listed as mono-protonated nicotine) was “mono-protonated nicotine<unprotonated nicotine<menthol”.

For 2-hydroxy-propyl-β-cyclodextrin, the solubility in water [3] is listed as “increased solubility in water”.
